Assay results from article PMC5156471, “Complementary pharmacological and toxicological characterization data on the pharmacological profile of N-(2,6-dichlorophenyl)-2-(4-methyl-1-piperidinyl) acetamide” (Data in Brief, 2016).
Read-outs that look alike come from different tables or passages of the source.

Key:
[1] = system: bone marrow polychromatic erythrocytes; type: in vivo, mice
Protocol: This test was carried out following standard protocols, [5]. […] Animals were sacrificed 24 h later and the bone marrow from both femurs was flushed out using 2 mL of saline and centrifuged for 5 min at 3000 rpm. The supernatant was discarded, and the pellet was re-suspended in 0.3 mL of saline. Of this smears were made on glass slides. The slides were fixed with methanol and stained with 10% Wright–Giemsa stain. Cells were blindly scored using a light microscope at 100 X magnification. For the analysis of micronucleated cells, 1000 polychromatic erythrocytes (PCE) per animal were scored. In order to assess the cytotoxic effects of compounds, the ratio of PCE to normochromatic erythrocytes (NCE) was determined in 1000 erythrocytes, [5]. The results are presented as the mean number of micronucleated polychromatic erythrocytes (MNPCE) or the ratio PCE:NCE in individual mice (two smears per animal)±SEM for five animals per group (Table 3).

[2] = Acute toxicity in mice by the Lorke method; conditions: male, ICR, mouse, in vivo, ip
Protocol: (§1) Experiments were performed on ICR male mice by the Lorke method. Doses were selected according this method. In both phases, mice were observed daily for 14 days for mortality, toxic effects and behavioral changes. Restlessness, respiratory distress, seizures, diarrhea, motor activity, posture and reflexes were qualitatively determined. Body weight was also monitored. The internal organs (including the stomach, heart, lung, liver, and kidneys) were removed at the end of experiment and visually examined for lesions.

ICR male mice = experiment: Acute toxicity in mice by the Lorke method; conditions: for Dead mice: i.p., dead/treated, observed 14 days
Protocol: as §1

normotensive rats = experiment: Cardiovascular response in normotensive conscious rats (tail cuff method); type: in vivo; conditions: 50 and 80 mg/kg, p.o.
Protocol: The hypotensive activity was determined using a standard protocol of Avila-Villarreal et al.. This study was conducted in normotensive rats. […] Systolic and diastolic blood pressure as well as heart rate were recorded before and after treatment at 0, 1, 3, 5 and 7 h by the tail cuff method using a Panlab non-invasive blood pressure system for rodents and dogs (Harvard Apparatus). Percent of reduction in heart rate (HR), systolic blood pressure (SBP) or diastolic blood pressure (DBP) were calculated using diltiazem as control (Fig. 2).

[3] = system: brine shrimp larvae (Artemia salina L.); experiment: Artemia saline lethality test; type: in vivo
[4] = mice, i.p. (LIA, lidocaine 100 mg/kg; cyclophosphamide 40 mg/kg), 24 h, mean±SEM, five animals

SMILES | MNPCE per 1000 PCE [1, 4] | PCE:NCE [1, 4] | LD50 at 14 days [2] | Dead mice (ICR male mice; Phase I, 10 mg/kg) | Dead mice (ICR male mice; Phase I, 100 mg/kg) | Dead mice (ICR male mice; Phase I, 1000 mg/kg) | Dead mice (ICR male mice; Phase II, 140 mg/kg) | Dead mice (ICR male mice; Phase II, 225 mg/kg) | Dead mice (ICR male mice; Phase II, 370 mg/kg) | Dead mice (ICR male mice; Phase II, 600 mg/kg) | Macroscopic damage of internal organs (stomach, heart, lung, liver, kidneys) (ICR male mice; mice, visual examination at the end of experiment (14 days)) | Toxicity in mice (in words) (ICR male mice; mouse, in vivo) | MNPCE per 1000 PCE ([1]; male, ICR, mouse, in vivo) | PCE:NCE ([1]; male, ICR, mouse, in vivo) | Genotoxicity in mice (in words) ([1]; mouse, in vivo) | Cardiovascular responses (heart rate, systolic and diastolic blood pressure; in words) (normotensive rats) | LC50 ([3]; Artemia saline L., 24 h, 100-1000 ppm in triplicate) | Toxicity in Brine Ship (in words) ([3]; in vivo)
O=P1(N(CCCl)CCCl)NCCCO1 (stereo not drawn) [Cyclophosphamide, reference compound] | 82.6±1.8 | 14±0.3 |  |  |  |  |  |  |  |  |  |  |  |  |  |  |  | 
CC1CCN(CC(=O)Nc2c(Cl)cccc2Cl)CC1 [LIA, N-(2,6-dichlorophenyl)-2-(4-methyl-1-piperidinyl)acetamide] |  |  | 800 mg/kg | 0/3 | 0/3 | 3/3 | 0/3 | 0/3 | 0/3 | 3/3 | Neither LIA nor lidocaine produced visible macroscopically damage | not toxic | 5.8±1.9 ^⁎^, ^# | 20.7±1.6 | not genotoxic | does not modify cardiovascular responses | 335.1 ±85.7 ppm | not toxic
